Experimental data reported in US8691986B2, “Azetidine and piperidine compounds useful as PDE10 inhibitors” (Amgen Inc., priority 2012, dated 2014).

Legend:
rat MDR1 (mdr1a, P-gp) = assay: Transcellular transport in rat mdr1a-transfected LLC-PK1 cells; format: in vitro ADME; conditions: pH 7.4, mdr1a-LLC-PK1, 5 μM test compound
Method: Digoxin and mannitol were purchased from Sigma-Aldrich (St. Louis, Mo.). 3H-digoxin and 14C-mannitol were purchased from PerkinElmer Life and Analytical Sciences (Boston, Mass.). Transport buffer was prepared using Hank's balanced salt solution (HBSS) supplemented with 10 mM Hepes, pH 7.4 and 0.1% BSA (HHBSS, Invitrogen, Grand Island, N.Y., BSA, Bovine Serum Albumin, Calbiochem, La Jolla, Calif.).
Cultures were incubated at 37° C. in a humidified (95% relative humidity) atmosphere of 5% CO2/95% air. The parental cell line LLC-PK1 (porcine renal epithelial cells) was purchased from American Type Culture Collection (ATCC, Manassas, Va.). Human MDR1 and Sprague-Dawley rat mdra1 transfectants in LLC-PK1 were generated at Amgen (Thousand Oaks, Calif.). Cells were cultured in Medium 199 supplemented with 2 mM L-glutamine, penicillin (50 units/mL), streptomycin (50 μg/mL), and 10% (v/v) fetal bovine serum (all from Invitrogen) (Schinkel et al, 1995).
LLC-PK1, MDR1-LLC-PK1, and mdr1a-LLC-PK1 cell monolayers were seeded onto porous (1.0 μm) polycarbonate 96-well transwell membrane filters (Millipore Corp., Billerica, Mass.) and cultured for six days with one media replacement on day four prior to transwell experiments. Cells were washed once with warmed HHBS prior to transwell experiments. Experiments were initiated by replacing the buffer in each compartment with 0.15 mL of HBSS containing 0.1% BSA with and without 5 μM of test compound in triplicate wells. The plates were incubated for two hours at 37° C. in an EVO incubator with shaking. Aliquots (100 μl) from both donor and receiver chambers were transferred to 96 well plates or scintillation vials. Protein was precipitated by addition of 200 μL acetonitrile containing 0.1% formic acid and prazosin (25 ng/mL) as internal standard. After vortexing and centrifugation at 3000 rpm for 20 min, 150 μL supernatant samples were transferred to a new plate containing 50 μL water for LC-MS/MS analysis. Transcellular transport of 3H-Digoxin was used as a positive control for Pgp. Paracellular permeability of 14C-Mannitol was used to measure the integrity of the monolayer. Sample radioactivity was measured using a liquid scintillation counter (Packard Tri-Carb 2910TR, PerkinElmer).
The apparent permeability coefficient (Papp) of all tested agents was estimated from the slope of cumulative amount (dQ) of the agent vs. time (dt), and the equation: Papp=(dQ/dt)/(A*C0)
where dQ/dt is the penetration rate of the agent […], A is the surface area of the cell layer on the Transwell (0.11 cm2), and CO is the initial concentration of the test compound (μM).

human PDE10A2 = human PDE10A2 (Homo sapiens (Human), UniProt Q9Y233); assay: PDE10A enzyme inhibition, PDE IMAP TR-FRET assay; format: biochemical; conditions: FAM-cAMP substrate
Method: An IMAP TR-FRET assay was used to analyze the enzyme activity (Molecular Devices Corp., Sunnyvale Calif.). 10 μL of serial diluted PDE10A (BPS Bioscience, San Diego, Calif.) or tissue homogenate was incubated with equal volumes of diluted fluorescein labeled cAMP or cGMP for 90 min in 384-well Polypropylene assay plates (Greiner, Monroe, N.C.) at room temperature. After incubation, the reaction was stopped by adding 55 μL of diluted binding reagents and was incubated for 4 hours to overnight at room temperature. The plates were read on an Envision (Perkin Elmer, Waltham, Mass.) for time resolved fluorescence resonance energy transfer. The data were analyzed with Genedata Screener® (Lexington, Mass.).
To check the inhibition profile, 0.2 μL of serial diluted compounds were incubated with 10 μL of diluted PDE10 enzyme (BPS Bioscience, San Diego, Calif.) or tissue homogenate in a 384-well Polypropylene assay plate (Greiner, Monroe, N.C.) for 60 min at room temperature. After incubation, 10 μL of diluted fluorescein labeled cAMP or cGMP substrate was added and incubated for 90 min at room temperature. The reaction was stopped by adding 55 μL of diluted binding reagents and plates were read on an Envision (Perkin Elmer, Waltham, Mass.) for time resolved fluorescence resonance energy transfer. The data were analyzed with Genedata Screener® (Lexington, Mass.).
Purified human PDE2A1 and PDE10A2 enzymes were obtained from BPS Bioscience (San Diego, Calif.). IMAP™ TR-FRET progressive binding system, FAM-cAMP substrate were from Molecular Devices (Sunnyvale, Calif.).
The PDE IMAP assay was conducted in a 384-well black Greiner polypropylene plate (Sigma, St. Louis, Mo.). PDE inhibitors were serial diluted in 100% DMSO and dispensed into assay plate at […] per well using Echo® Liquid Handling System from LABCYTE. Ten μL of PDE enzyme in IMAP reaction buffer (10 mM Tris-HCl, pH 7.2, 10 mM MgCl2, 0.05% NaN3, and 0.01% Tween-20) was added into the assay wells. The PDE enzyme concentration used was based on each lot of enzyme activity, to ensure enzyme reaction falls in a linear range under assay condition. 1.4 nM of PDE2 or 8 μM PDE10 were used in the assay system. […] Enzyme reaction was allowed to proceed at room temperature for 90 min, and the reaction is stopped by 55 μl addition of binding reagent according to manufacturer's recommendation. The mixture is further incubated at room temperature for additional 4 hours, and signal was read on an Envision multimode reader (PerkinElmer). Fluorescence signals were measured at 520 nm and 485 nm. The signal ratio at 520/485 nm corresponded to the generation of reaction product of AMP, and it was used in all data analysis. Values from DMSO-treated wells were normalized to POC=100, and no-enzyme wells were normalized to POC=0. IC50 values were determined by using the Genedata Screener V9.0.1. The curve fitting algorithm used for dose response data analysis in Genedata Screener is a custom implementation of a robust curve-fitting algorithm called ROUT (Robust regression with outlier detection) and uses a four-parameter logistical (4 PL) Hill model.

Chain of human PDE10A2 (Q9Y233 267-1055): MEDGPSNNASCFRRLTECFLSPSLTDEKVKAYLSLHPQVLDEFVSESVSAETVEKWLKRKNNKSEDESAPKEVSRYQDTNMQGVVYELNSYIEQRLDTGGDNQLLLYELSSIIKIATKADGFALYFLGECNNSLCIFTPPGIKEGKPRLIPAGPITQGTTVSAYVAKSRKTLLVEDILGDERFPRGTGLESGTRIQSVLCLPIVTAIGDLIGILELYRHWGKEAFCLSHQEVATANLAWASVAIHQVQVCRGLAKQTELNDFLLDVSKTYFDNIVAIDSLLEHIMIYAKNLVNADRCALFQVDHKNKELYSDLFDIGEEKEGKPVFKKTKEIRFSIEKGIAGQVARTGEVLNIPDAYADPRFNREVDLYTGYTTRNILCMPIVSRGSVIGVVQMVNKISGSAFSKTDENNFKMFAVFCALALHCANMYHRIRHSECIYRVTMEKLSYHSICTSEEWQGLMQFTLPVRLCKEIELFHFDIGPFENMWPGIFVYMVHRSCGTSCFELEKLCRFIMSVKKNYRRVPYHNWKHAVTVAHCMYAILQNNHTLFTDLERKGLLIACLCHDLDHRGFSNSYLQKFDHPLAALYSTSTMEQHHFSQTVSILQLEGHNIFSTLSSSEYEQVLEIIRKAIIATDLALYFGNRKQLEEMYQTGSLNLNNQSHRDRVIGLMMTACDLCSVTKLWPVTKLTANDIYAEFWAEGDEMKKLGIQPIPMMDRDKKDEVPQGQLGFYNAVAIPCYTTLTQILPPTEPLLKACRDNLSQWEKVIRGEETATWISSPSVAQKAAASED

| Compound | efflux ratio at 2 h, 5 μM (rat MDR1 (mdr1a, P-gp)) | IC50 (human PDE10A2) [nM] |
| --- | --- | --- |
| CNC(=O)c1ccc(-c2nccnc2C2CN(c3ncc4cc(F)ccc4n3)C2)cc1F [Example 11, 2-Fluoro-4-(3-(1-(6-Fluoroquinazolin-2-Yl)Azetidin-3-Yl)Pyrazin-2-Yl)-N-Methylbenzamide] | 1.2 | 16.6 |
| CNC(=O)c1ccc(-c2nccnc2C2CCN(c3ccc4ccc(Cl)cc4n3)CC2)cc1F [Example 1, 4-(3-(1-(7-Chloroquinolin-2-Yl)Piperidin-4-Yl)Pyrazin-2-Yl)-2-Fluoro-N-Methylbenzamide] | 2.3 | 28.7 |
| CNC(=O)c1ccc(-c2nccnc2C2CN(c3ncc4ccc(Cl)cc4n3)C2)cc1F [Example 10, 4-(3-(1-(7-Chloroquinazolin-2-Yl)Azetidin-3-Yl)Pyrazin-2-Yl)-2-Fluoro-N-Methylbenzamide] | 1.2 | 5.9 |
| CNC(=O)c1ccc(-c2nccnc2C2CCN(c3ccc4ccc(F)cc4n3)CC2)cc1F [Example 2, 2-Fluoro-4-(3-(1-(7-Fluoroquinolin-2-Yl)Piperidin-4-Yl) Pyrazin-2-Yl)-N-Methylbenzamide] | 2.7 | 6.3 |
| CNC(=O)c1ccc(-c2nccnc2C2CN(c3ccc4ccccc4n3)C2)cc1F [Example 7, 2-Fluoro-N-Methyl-4-(3-(1-(Quinolin-2-Yl)Azetidin-3-Yl) Pyrazin-2-Yl)Benzamide] | 3.1 | 4 |
| CNC(=O)c1ccc(-c2nccnc2C2CN(c3ncc4ccc(F)cc4n3)C2)cc1F [Example 9, 2-Fluoro-4-(3-(1-(7-Fluoroquinazolin-2-Yl)Azetidin-3-Yl)Pyrazin-2-Yl)-N-Methylbenzamide] | 2.7 | 30.9 |

Other lines, results leading:

| efflux ratio at 2 h, 5 μM (rat MDR1 (mdr1a, P-gp)) | IC50 (human PDE10A2) [nM] | Compound |
| --- | --- | --- |
| 2.8 | 3.9 | CNC(=O)c1ccc(-c2nccnc2C2CN(c3ncc4cc(F)c(Cl)cc4n3)C2)cc1F [Example 12, 4-(3-(1-(7-Chloro-6-Fluoroquinazolin-2-Yl)Azetidin-3-Yl)Pyrazin-2-Yl)-2-Fluoro-N-Methylbenzamide] |
| 2.1 | 3.1 | CNC(=O)c1ccc(-c2nccnc2C2CCN(c3ccc4ccccc4n3)CC2)cc1F [Example 3, 2-Fluoro-N-Methyl-4-(3-(1-(Quinolin-2-Yl)Piperidin-4-Yl)Pyrazin-2-Yl)Benzamide] |
| 2.5 | 0.5 | CNC(=O)c1ccc(-c2nccnc2C2CN(c3ccc4ccc(F)cc4n3)C2)cc1F [Example 8, 2-Fluoro-4-(3-(1-(7-Fluoroquinolin-2-Yl)Azetidin-3-Yl) Pyrazin-2-Yl)-N-Methylbenzamide] |
| 2.3 | 7.5 | CNC(=O)c1ccc(-c2nccnc2C2CCN(c3ccc4cccc(F)c4n3)CC2)cc1F [Example 5, 2-Fluoro-4-(3-(1-(8-Fluoroquinolin-2-Yl)Piperidin-4-Yl)Pyrazin-2-Yl)-N-Methylbenzamide] |
| 2.7 | 1.7 | CNC(=O)c1ccc(-c2nccnc2C2CN(c3ccc4cc(F)ccc4n3)C2)cc1F [Example 13, 2-Fluoro-4-(3-(1-(6-Fluoroquinolin-2-Yl)Azetidin-3-Yl) Pyrazin-2-yl)-N-Methylbenzamide] |
| 1.1 | 3.6 | CNC(=O)c1ccc(-c2nccnc2C2CN(c3ccc4ncc(Cl)cc4n3)C2)cc1F [Example 14, 4-(3-(1-(7-Chloro-1,5-Naphthyridin-2-Yl)Azetidin-3-Yl)Pyrazin-2-Yl)-2-Fluoro-N-Methylbenzamide] |
| 2.2 | 2.8 | CNC(=O)c1ccc(-c2nccnc2C2CCN(c3ccc4cc(F)ccc4n3)CC2)cc1F [Example 4, 2-Fluoro-4-(3-(1-(6-Fluoroquinolin-2-Yl)Piperidin-4-Yl)Pyrazin-2-Yl)-N-Methylbenzamide] |
| 1.2 | 7.6 | CNC(=O)c1ccc(-c2nccnc2C2CN(c3ncc4ccccc4n3)C2)cc1F [Example 6, 2-Fluoro-N-Methyl-4-(3-(1-(Quinazolin-2-Yl)Azetidin-3-Yl)Pyrazin-2-Yl)Benzamide] |
